From patent US8575337B2, “Oxazolidinone derivative having fused ring” (Research Foundation Itsuu Laboratory, priority 2008, dated 2013)
In brackets after ≈: the same amount, converted by molar mass.

Experiments:
Assay in all cases: MIC determination, CLSI standard method
Type in all cases: cell-based
[1] = system: E. faecium SR7940 (VRE); conditions: Enterococcus faecium, cation-adjusted Mueller Hinton Broth, inoculum about 5×10^5 CFU/mL
Procedure: (§1) The compounds of the above Examples were tested for antimicrobial activity.
(§2) Minimal inhibitory concentration (MIC: μg/ml) against different strains of bacteria was determined according to the standard method recommended by CLSI (clinical and laboratory standards institute). The samples used were prepared by dissolving the compound in DMSO at the concentration 1280 μg/mL, followed by a two fold serial dilution with DMSO. The sample was added to a bacteria suspension at the concentration of 5%, and MIC was determined. Cation-adjusted Mueller Hinton Broth was used as a culture media. The inoculation concentration was about 5×10^5 CFU/mL.

[2] = system: S. aureus NRS271 (LZD-R); conditions: Staphylococcus aureus, cation-adjusted Mueller Hinton Broth, inoculum about 5×10^5 CFU/mL
Procedure: as §1, §2

[3] = system: S. aureus SR3637 (MRSA); conditions: Staphylococcus aureus, cation-adjusted Mueller Hinton Broth, inoculum about 5×10^5 CFU/mL
Procedure: as §1, §2

Compound	MIC [1] [µg/mL]	MIC [2] [µg/mL]	MIC [3] [µg/mL]
CC(=O)NC[C@H]1CN(c2ccc(-c3ccn4ccnc4c3)c(F)c2)C(=O)O1 [Example 18]	0.25 (≈ 0.679 µM)	2 (≈ 5.43 µM)	0.25 (≈ 0.679 µM)
CC(=O)NC[C@H]1CN(c2ccc(N3CCOCC3)c(F)c2)C(=O)O1 [Linezolid, (S)-n-[[3-[3-fluoro-4-(4-morpholinyl)phenyl]-2-oxo-5-oxazolidinyl]methyl]acetamide]	2 (≈ 5.93 µM)	32 (≈ 94.9 µM)	2 (≈ 5.93 µM)
